Experimental data taken from ChEMBL document CHEMBL2321710, “Bioactive polyhydroxylated steroids from the Hainan soft coral Sinularia depressa Tixier-Durivault” (Bioorg Med Chem Lett, 2013).
≈ marks a conversion by molar mass, not a printed value.

Assays:
[1] = target: T1, Tyrosine-protein phosphatase non-receptor type 1 (Homo sapiens, UniProt P18031); test: Inhibition of human PTP1B
T1 sequence (P18031 whole entry): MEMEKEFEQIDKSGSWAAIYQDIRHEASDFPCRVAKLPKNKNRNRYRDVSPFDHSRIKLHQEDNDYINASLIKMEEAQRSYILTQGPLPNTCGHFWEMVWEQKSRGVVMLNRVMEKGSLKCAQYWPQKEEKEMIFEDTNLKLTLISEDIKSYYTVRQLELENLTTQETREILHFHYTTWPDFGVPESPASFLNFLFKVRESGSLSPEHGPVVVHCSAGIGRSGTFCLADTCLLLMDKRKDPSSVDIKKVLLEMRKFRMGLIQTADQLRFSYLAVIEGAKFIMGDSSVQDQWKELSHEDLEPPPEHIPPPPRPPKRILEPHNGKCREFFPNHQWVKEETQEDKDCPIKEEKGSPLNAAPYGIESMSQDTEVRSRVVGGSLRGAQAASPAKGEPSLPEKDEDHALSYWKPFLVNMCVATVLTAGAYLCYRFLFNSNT

[2] = target: Amyloid-beta precursor protein (Homo sapiens) (UniProt P05067); test: Neuroprotectivie activity against amyloid beta (25 to 35)-induced toxicity in human SH-SY5Y cells assessed as increase in cell viability at 10 uM incubated for 2 hrs prior to amyloid beta (25 to 35)-challenge measured after 24 hrs by MTT assay relative to control; assay type: functional, cell-based
Staphylococcus aureus = test: Antibacterial activity against Staphylococcus aureus Newman […]; assay type: functional, organism-based
[3] = Neuroprotectivie activity against serum deprivation-induced toxicity in human SH-SY5Y cells assessed as increase in cell viability at 10 uM relative to control; assay type: functional

Sequence of Amyloid-beta precursor protein (Homo sapiens) (P05067 whole entry): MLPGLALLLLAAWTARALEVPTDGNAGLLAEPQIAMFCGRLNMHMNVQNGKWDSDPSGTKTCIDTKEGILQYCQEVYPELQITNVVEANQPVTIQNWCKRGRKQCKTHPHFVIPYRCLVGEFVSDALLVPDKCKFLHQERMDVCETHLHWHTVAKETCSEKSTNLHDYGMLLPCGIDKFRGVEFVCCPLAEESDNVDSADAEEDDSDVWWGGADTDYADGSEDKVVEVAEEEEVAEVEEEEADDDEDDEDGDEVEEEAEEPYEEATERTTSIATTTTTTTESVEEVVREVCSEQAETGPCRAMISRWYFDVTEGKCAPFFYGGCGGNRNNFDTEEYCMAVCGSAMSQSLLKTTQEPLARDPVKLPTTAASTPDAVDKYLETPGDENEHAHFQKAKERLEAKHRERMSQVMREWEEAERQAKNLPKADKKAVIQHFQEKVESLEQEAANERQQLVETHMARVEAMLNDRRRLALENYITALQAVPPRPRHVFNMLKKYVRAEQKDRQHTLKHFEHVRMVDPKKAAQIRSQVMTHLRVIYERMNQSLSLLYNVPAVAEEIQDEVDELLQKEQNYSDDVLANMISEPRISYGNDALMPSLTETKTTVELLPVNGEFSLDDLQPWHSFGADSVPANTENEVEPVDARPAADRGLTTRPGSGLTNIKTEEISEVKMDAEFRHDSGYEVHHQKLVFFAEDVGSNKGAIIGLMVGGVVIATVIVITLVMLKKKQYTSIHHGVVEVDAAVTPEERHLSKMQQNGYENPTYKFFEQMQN

Compound | IC50 [1] [µM] | MIC50 (Staphylococcus aureus) [µM] | also measured
C=C(CC[C@@H](C)[C@H]1CC[C@@H]2[C@]1(C)CC[C@@H]1[C@@]3(C)CC[C@H](OC(C)=O)[C@@H](C)[C@@H]3CC[C@@]21O)C(C)C | 22.7 | – | –
C=C(CC[C@@H](C)[C@H]1CC[C@@H]2[C@]1(C)C[C@H](O)[C@@H]1[C@@]3(C)CC[C@H](O)[C@@H](C)[C@@H]3CC[C@@]21O)C(C)C | – | – | Activity [2]: 20.1%
C[C@@H]1O[C@@H]1P(=O)(O)O [FOSFOMYCIN SODIUM] | – | – | IC50 (Staphylococcus aureus): 137 µM
C=C(CC[C@@H](C)[C@H]1CC[C@H]2[C@@H]3[C@@H](OC(C)=O)C=C4C[C@@H](O)CC[C@]4(CO)[C@H]3CC[C@]12C)C(C)C | – | 1000 (≈ 473 µg/mL) | –
C=C(CC[C@@H](C)[C@H]1CC[C@H]2[C@@H]3CCC4=CC(=O)CC[C@]4(C)[C@H]3CC[C@]12C)C(C)C | 15.3 | – | Activity [2]: 16.6%; Activity [3]: 16.9%
C=C(CC[C@@H](C)[C@H]1CC[C@H]2[C@@H]3CC[C@H]4[C@H](C)[C@@H](O)CC[C@]4(C)[C@H]3CC[C@]12C)C(C)C | 19.5 | – | –
C=C(CC[C@@H](C)[C@H]1CC[C@@H]2[C@]1(C)CC[C@H]1[C@]23CC[C@]2(C[C@@H](O)CC[C@]12C)OO3)C(C)C | – | 500 (≈ 215 µg/mL) | –
C=C(CC[C@@H](C)[C@H]1CC[C@H]2[C@@H]3C[C@@H](O)[C@@]4(O)C[C@@H](O)CC[C@]4(COC(C)=O)[C@H]3CC[C@]12C)C(C)C [ARMATINOL B] | – | 15.6 (≈ 7.66 µg/mL) | –
